Measurements published in patent US8003659B2, “Macrocyclic serine protease inhibitors” (Indenix Pharmaceuticals, Inc., priority 2008, dated 2011).
pEC50, pIC50: −log10 of the molar value.

Key:
[1] = tested on: Huh-7 cells containing HCV Con1 subgenomic replicon (GS4.1 cells); assay: HCV Replicon Assay (NS4A ELISA); assay type: cell-based; settings: Hepatitis C virus, Huh-7, 72 hr, NS4A protein by ELISA
Procedure: General procedure: Huh-7 cells containing HCV Con1 subgenomic replicon (GS4.1 cells) were grown in Dulbecco's Modified Eagle Medium (DMEM) supplemented with 10% fetal bovine serum (FBS), 2 mM L-glutamine, 110 mg/L sodium pyruvate, 1× non-essential amino acids, 100 U/mL penicillin-streptomycin, and 0.5 mg/mL G418 (Invitrogen). For dose-response testing, the cells were seeded in 96-well plates at 7.5×10^3 cells/well in a volume of 50 μL, and incubated at 37° C./5% CO2. Three hours after plating, 50 μL of ten 2-fold serial dilutions of compounds (highest concentration, 75 μM) were added, and cell cultures were incubated at 37° C./5% CO2 in the presence of 0.5% DMSO. Alternatively, compounds were tested at a single concentration of 15 μM. In all cases, Huh-7 cells lacking the HCV replicon served as negative control. The cells were incubated in the presence of compounds for 72 hr after which they were monitored for expression of the NS4A protein by enzyme-linked immunosorbent assay (ELISA). For this, the plates were then fixed for 1 min with acetone/methanol (1:1, v/v), washed twice with phosphate-buffered saline (PBS), 0.1% Tween 20, blocked for 1 hr at room temperature with TNE buffer containing 10% FBS and then incubated for 2 hr at 37° C. with the anti-NS4A mouse monoclonal antibody A-236 (ViroGen) diluted in the same buffer. After washing three times with PBS, 0.1% Tween 20, the cells were incubated 1 hr at 37° C. with anti-mouse immunoglobulin G-peroxidase conjugate in TNE, 10% FBS. After washing as described above, the reaction was developed with O-phenylenediamine (Zymed). The reaction was stopped after 30 min with 2 NH2SO4, and absorbance was read at 492 nm using Sunrise Tecan spectrophotometer. EC50 values were determined from the % inhibition versus concentration data using a sigmoidal non-linear regression analysis based on four parameters with Tecan Magellan software. When screening at a single concentration, the results were expressed as % inhibition at 15 μM.

[2] = Cytotoxicity evaluation (Cell Titer 96 AQueous One Solution Cell Proliferation Assay); assay type: cell-based; settings: human; GS4.1 cells, cellular viability
Procedure: For cytotoxicity evaluation, GS4.1 cells were treated with compounds as described above and cellular viability was monitored using the Cell Titer 96 AQueous One Solution Cell Proliferation Assay (Promega). CC50 values were determined from the % cytotoxicity versus concentration data with Tecan Magellan software as described above.

HCV NS3-NS4A protease = target: T1, HCV NS3-NS4A protease (Hepatitis C virus genotype 1b, UniProt P26663); assay: HCV Protease Assay (SensoLyte 620 HCV Protease Assay kit); assay type: biochemical; settings: 1.2 nM HCV NS3-NS4A protease, 60 min at room temperature, 5% DMSO
T1 construct: made in house
T1 sequence (P26663 1027-1208): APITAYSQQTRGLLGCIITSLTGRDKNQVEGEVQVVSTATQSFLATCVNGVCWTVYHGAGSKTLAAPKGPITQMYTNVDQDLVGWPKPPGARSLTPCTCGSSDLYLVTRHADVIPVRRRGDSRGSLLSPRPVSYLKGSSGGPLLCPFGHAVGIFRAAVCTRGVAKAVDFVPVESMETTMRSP
Procedure: General procedure: Measurement of the inhibitory effect of compounds on HCV protease activity was performed with the SensoLyte™ 620 HCV Protease Assay kit from AnaSpec, Inc. (San Jose, Calif.) under conditions described by the supplier using 1.2 nM HCV NS3-NS4A protease, which was obtained according to Taremi et al. (Protein Science, 1998, 7, 2143-2149). The compounds were tested at a variety of concentrations in assay buffer containing a final DMSO concentration of 5%. Reactions were allowed to proceed for 60 min at room temperature and fluorescence measurements were recorded with a Tecan Infinity Spectrofluorimeter. The IC50 values were determined from the percent inhibition versus concentration data using a sigmoidal non-linear regression analysis based on four parameters with Tecan Magellan software.

Structure (SMILES)	pEC50 [1]	CC50 [2] [nM]	pIC50 (HCV NS3-NS4A protease)
COc1ccc2c(O[C@H]3C[C@H]4C(=O)N(C)CCCC/C=C\[C@@H]5C[C@@]5(C(=O)NS(=O)(=O)C5(C)CC5)NC(=O)N4C3)cc(-n3ccc(C(C)C)n3)nc2c1Cl [Compound 91d, (Z)-(4R,6S,15S,17S)-[17-[8-chloro-7-methoxy-2-(3-isopropyl-1H-pyrazol-1-yl)quinolin-4-yloxy]-13-N-methyl-2,14-dioxo-1,3,13-triazatricyclo[13.3.0.0]octadec-7-ene-4-yl]carbonyl(1-methylcyclopropyl)sulfonamide]	> 6.00	> 75000	> 6.00
COc1ccc2c(O[C@H]3C[C@H]4C(=O)N(C)CCCC/C=C\[C@@H]5C[C@@]5(C(=O)NS(=O)(=O)C5CC5)NC(=O)N4C3)cc(-c3nc(C(C)C)cs3)nc2c1C [Compound 62b, (Z)-(4R,6S,15S,17S)-[17-[7-methoxy-8-methyl-2-(4-isopropylthiazol-2-yl)quinolin-4-yloxy]-13-N-methyl-2,14-dioxo-1,3,13-triazatricyclo[13.3.0.0]octadec-7-en-4-yl]carbonyl(cyclopropyl)sulfonamide]	> 6.00	> 75000	> 6.00
COc1ccc2c(O[C@H]3C[C@H]4C(=O)N(C)CCCC/C=C\[C@@H]5C[C@@]5(C(=O)NS(=O)(=O)C5(C)CC5)NC(=O)N4C3)nc(-c3nc(C(C)C)cs3)nc2c1Cl [Compound 110d, (Z)-(4R,6S,15S,17S)-[17-[8-chloro-7-methoxy-2-(4-isopropylthiazol-2-yl)quinazolin-4-yloxy]-13-N-methyl-2,14-dioxo-1,3,13-triazatricyclo[13.3.0.0]octadec-7-ene-4-yl]carbonyl(1-methylcyclopropyl)sulfonamide]	> 6.00	> 75000	> 6.00
COc1ccc2c(O[C@H]3C[C@H]4C(=O)N(C)CCCC/C=C\[C@@H]5C[C@@]5(C(=O)NS(=O)(=O)C5(C)CC5)NC(=O)N4C3)cc(-c3csc(C(F)(F)F)n3)nc2c1Cl [Compound O2, (Z)-(4R,6S,15S,17S)-[17-[8-chloro-7-methoxy-2-(2-trifluoromethylthiazol-4-yl)quinolin-4-yloxy]-13-N-methyl-2,14-dioxo-1,3,13-triazatricyclo-[13.3.0.0]octadec-7-en-4-yl]carbonyl-(1-methylcyclopropyl)sulfonamide]	> 6.00	10000 to 75000	> 6.00
C=Cc1csc(-c2cc(O[C@H]3C[C@H]4C(=O)N(C)CCCC/C=C\[C@@H]5C[C@@]5(C(=O)NS(=O)(=O)C5(C)CC5)NC(=O)N4C3)c3ccc(OC)c(Cl)c3n2)n1 [AH, (Z)-(4R,6S,15S,17S)-[17-[8-chloro-7-methoxy-2-(4-vinylthiazol-2-yl)quinolin-4-yloxy]-13-N-methyl-2,14-dioxo-1,3,13-triazatricyclo-[13.3.0.0]octadec-7-en-4-yl]carbonyl(1-methyl-cyclopropyl)sulfonamide]	> 6.00	10000 to 75000	> 6.00
COc1ccc2c(O[C@H]3C[C@H]4C(=O)N(C)CCCC/C=C\[C@@H]5C[C@@]5(C(=O)NS(=O)(=O)C5(C)CC5)NC(=O)N4C3)cc(-c3nc(C(C)C)cs3)nc2c1Br [Compound 56h, (Z)-(4R,6S,15S,17S)-[17-[8-bromo-7-methoxy-2-(4-isopropylthiazol-2-yl)quinolin-4-yloxy]-13-N-methyl-2,14-dioxo-1,3,13-triazatricyclo[13.3.0.0]octadec-7-en-4-yl]carbonyl(1-methyl-cyclopropyl)sulfonamide]	> 6.00	> 75000	> 6.00
COc1ccc2c(O[C@H]3C[C@H]4C(=O)N(C)CCCC/C=C\[C@@H]5C[C@@]5(C(=O)NS(=O)(=O)C5CC5)NC(=O)N4C3)cc(-c3nc(C)cs3)nc2c1Cl [AN, (Z)-(4R,6S,15S,17S)-[17-[8-chloro-7-methoxy-2-(4-methylthiazol-4-yl)quinolin-4-yloxy]-13-N-methyl-2,14-dioxo-1,3,13-triazatricyclo-[13.3.0.0]octadec-7-en-4-yl]carbonyl-(cyclopropyl)sulfonamide]	> 6.00	10000 to 75000	> 6.00
COc1cc2c(O[C@H]3C[C@H]4C(=O)N(C)CCCC/C=C\[C@@H]5C[C@@]5(C(=O)NS(=O)(=O)C5(C)CC5)NC(=O)N4C3)cc(-c3nc(C(C)C)cs3)nc2cc1Cl [Compound 56g, (Z)-(4R,6S,15S,17S)-[17-[7-chloro-6-methoxy-2-(4-isopropylthiazol-2-yl)quinolin-4-yloxy]-13-N-methyl-2,14-dioxo-1,3,13-triazatricyclo[13.3.0.0]octadec-7-en-4-yl]carbonyl(1-methyl-cyclopropyl)sulfonamide]	> 6.00	> 75000	> 6.00
COc1ccc2c(O[C@H]3C[C@H]4C(=O)N(C)CCCC/C=C\[C@@H]5C[C@@]5(C(=O)NS(=O)(=O)C5(C)CC5)NC(=O)N4C3)cc(-n3ccc(C(F)(F)F)n3)nc2c1Cl [Compound 91a, (Z)-(4R,6S,15S,17S)-[17-[8-chloro-7-methoxy-2-(3-trifluoromethyl-1H-pyrazol-1-yl)quinolin-4-yloxy]-13-N-methyl-2,14-dioxo-1,3,13-triazatricyclo[13.3.0.0]octadec-7-ene-4-yl]carbonyl(1-methylcyclopropyl)sulfonamide]	> 6.00	> 75000	> 6.00
COc1ccc2c(O[C@H]3C[C@H]4C(=O)N(C)CCCC/C=C\[C@@H]5C[C@@]5(C(=O)NS(=O)(=O)C5(C)CC5)NC(=O)N4C3)cc(-c3nc(C(F)(F)F)cs3)nc2c1Cl [Compound 68d, (Z)-(4R,6S,15S,17S)-[17-[8-chloro-7-methoxy-2-(4-trifluoromethythiazol-2-yl)quinolin-4-yloxy]-13-N-methyl-2,14-dioxo-1,3,13-triazatricyclo[13.3.0.0]octadec-7-en-4-yl]carbonyl(1-methylcyclopropyl)sulfonamide]	> 6.00	> 75000	> 6.00
COc1ccc2c(O[C@H]3C[C@H]4C(=O)N(C)CCCC/C=C\[C@@H]5C[C@@]5(C(=O)NS(=O)(=O)C5(C)CC5)NC(=O)N4C3)cc(-n3ccc(C(C)C)n3)nc2c1C [Compound 91b, (Z)-(4R,6S,15S,17S)-[17-[8-methyl-7-methoxy-2-(3-isopropyl-1H-pyrazol-1-yl)quinolin-4-yloxy]-13-N-methyl-2,14-dioxo-1,3,13-triazatricyclo[13.3.0.0]octadec-7-ene-4-yl]carbonyl(1-methylcyclopropyl)sulfonamide]	> 6.00	10000 to 75000	> 6.00
COc1cc(OC)c2c(O[C@H]3C[C@H]4C(=O)N(C)CCCC/C=C\[C@@H]5C[C@@]5(C(=O)NS(=O)(=O)C5(C)CC5)NC(=O)N4C3)cc(-c3nc(C(C)C)cs3)nc2c1 [Compound 56e, (Z)-(4R,6S,15S,17S)-[17-[5,7-dimethoxy-2-(4-isopropylthiazol-2-yl)quinolin-4-yloxy]-13-N-methyl-2,14-dioxo-1,3,13-triazatricyclo[13.3.0.0]octadec-7-en-4-yl]carbonyl(1-methyl-cyclopropyl)sulfonamide]	5.00 to 6.00	> 75000	> 6.00
